Assay [1] addresses Recombinant human KAT6B protein (657-1069) (Homo sapiens (Human), UniProt Q8WYB5). The assay can be described thus: KAT6B biochemical TR-FRET assay. The following applies: histone H4 peptide 1000 nM, AcCoA 100 nM, enzyme 5 nM. The procedure:
Enzymatic reactions of KAT6A and KAT6B were performed using Fluorescence Resonance Energy Transfer (TR-FRET) assay, which measures acetylation of a synthetic, biotinylated histone-H4 peptide by the KAT6A and KAT6B enzymes. Recombinant human KAT6A protein (497-780) were expressed in BL21 cell using an E. coli expression system. Recombinant human KAT6B protein (657-1069) was expressed in sf9 cell using a baculovirus expression system. Histone H4 peptide (SEQ ID NO: 1—[…]-GGK-Biotin), which was used as substrate, was synthesized by GL Biochem, Shanghai, China. Acetyl coenzyme A was purchased from Sigma-Aldrich (#A-2056).
(§1) Testing for the inhibition activities of various compounds disclosed herein was carried out at room temperature in assay buffer containing 100 mM Tris/HCl Ph7.8, 15 mM NaCl, 0.01% chicken egg white albumin, 1 mM DTT and 0.01% Tween-20. Compounds in DMSO were dispensed into wells of a black, 384-well plate (Corning 4514) using ECHO555 (Beckman). The final concentration ranges of the test compounds were 0.0625-1,000 nM, 0.625-10,000 nM, or 0.313-5,000 nM. Five μL of KAT6A or KAT6B enzyme solution were added to wells, and the plate was incubated for 1 hour at room temperature (rt). After incubation for 1 hour at rt, 5 μL H4 and AcCoA substrate solutions were added to the wells to initiate reaction, and the plate was incubated. After 2 hours reaction, 5 μL detection reagent were added to the wells, and the plate was incubated for 2 hours. After two hours incubation, detection reagent containing 5 nM Anti-histone H4 antibody (ABCAM #ab177790), 100 μM formic acid (sigma #06473-100ML), 0.1 test/μL streptavidin-XL665 (PerkinElmer #610SAXLG), 0.05 test/μL PAb anti-rabbit IgG-Eu (PerkinElmer μ61PARKLA) was added to the wells. TR-FRET was measured on a microplate reader (PHERAstar FSX, BMG labtech). The IC50s were calculated based on inhibition of enzyme activity in the presence of increasing concentrations of test compounds, and the results are shown in Table 6. In Table 6, I≤5 nM, 5 nM<II≤50 nM.
On the technique in general: Time-resolved FRET reads energy transfer from a long-lived donor to a nearby acceptor.

For assay [2], the system named is histone H3K23 acetylation in U-2 OS cells. The assay can be described thus: Histone H3 lysine 23 acetylation assay in U-2 OS cells (high content analysis). Type of assay: cell-based. The following applies: Homo sapiens, U2OS, 24 hrs exposure, H3K23ac level. As for the experimental part: Assay B: Histone H3 lysine 23 Acetylation Assay
Compounds were tested for their capacity to suppress the histone H3K23 acetylation in the following high content analysis assay.
The cell line U-2 OS (ATCC HTB-96) was seeded at a density of 2000 cells per well in black 384 well cell culture/imaging microplates in 45 μl McCoy's 5A medium with […]. After overnight incubation in 37° C., 5% CO2 incubator, cells were then treated with a 9-point dilution series of compounds and a blank control group with medium containing 0.1% DMSO.
Following a 24 hrs exposure to the compounds, the cells were fixed with 4% immunohistochemical fixative for 20 mins at room temperature, washed with DPBS with 2% fetal bovine serum, and permed with Perm Buffer III for 30 min on ice, washed with DPBS with 2% fetal bovine serum. Then the cells were blocked with Odyssey blocking buffer containing 0.1% Tween 20. 20 ul Anti-Histone H3 (acetyl K23) antibody (Abcam, ab177275) in odyssey blocking buffer containing 0.1% Tween20 was added and incubated overnight at 4° C. After incubation, the cells were washed for 3 times and a secondary antibody Anti-rabbit IgG (H+L), F(ab′)2 Fragment (Alexa Fluor® 647 Conjugate) (CST, 4414S) were added into cells for one hour. The cells were washed and 1 ug/ml DAPI (Thermo, 62248) were added for 10 min. Then cells were washed and read on the PerkinElmer Operetta CLS high content analysis system. The nuclei were identified by DAPI and H3K23ac level was calculated from the Alexa Fluor 647 intensity in the nuclei. Inhibition rate of H3K23ac was calculated as the mean intensity of cells per well relative to blank controls on the same plate.

The target of assay [3] is Recombinant human KAT6A protein (497-780) (Homo sapiens (Human), UniProt Q92794). The assay can be described thus: KAT6A biochemical TR-FRET assay. The following applies: histone H4 peptide 2000 nM, AcCoA 300 nM, enzyme 5 nM. As for the experimental part:
Enzymatic reactions of KAT6A and KAT6B were performed using Fluorescence Resonance Energy Transfer (TR-FRET) assay, which measures acetylation of a synthetic, biotinylated histone-H4 peptide by the KAT6A and KAT6B enzymes. Recombinant human KAT6A protein (497-780) were expressed in BL21 cell using an E. coli expression system. Recombinant human KAT6B protein (657-1069) was expressed in sf9 cell using a baculovirus expression system. […] Acetyl coenzyme A was purchased from Sigma-Aldrich (#A-2056).
as §1, with “The IC50s were calculated based on inhibition of enzyme activity in the presence of increasing concentrations of test compounds, and the results are shown in Table 6.” left out

Structures are written as SMILES.

Recombinant human KAT6B protein (657-1069), sequence (Q8WYB5 657-1069): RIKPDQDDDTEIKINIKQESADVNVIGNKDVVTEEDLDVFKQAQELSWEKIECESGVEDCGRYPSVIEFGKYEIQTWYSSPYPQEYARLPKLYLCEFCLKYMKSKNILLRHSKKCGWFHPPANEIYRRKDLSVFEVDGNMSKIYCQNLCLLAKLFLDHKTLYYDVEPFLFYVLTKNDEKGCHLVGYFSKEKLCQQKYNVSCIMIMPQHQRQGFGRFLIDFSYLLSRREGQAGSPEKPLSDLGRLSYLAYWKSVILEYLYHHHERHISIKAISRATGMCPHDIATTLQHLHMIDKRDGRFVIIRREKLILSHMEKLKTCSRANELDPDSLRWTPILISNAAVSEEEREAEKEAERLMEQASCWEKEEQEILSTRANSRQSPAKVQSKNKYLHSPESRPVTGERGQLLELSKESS
Recombinant human KAT6A protein (497-780), sequence (Q92794 497-780): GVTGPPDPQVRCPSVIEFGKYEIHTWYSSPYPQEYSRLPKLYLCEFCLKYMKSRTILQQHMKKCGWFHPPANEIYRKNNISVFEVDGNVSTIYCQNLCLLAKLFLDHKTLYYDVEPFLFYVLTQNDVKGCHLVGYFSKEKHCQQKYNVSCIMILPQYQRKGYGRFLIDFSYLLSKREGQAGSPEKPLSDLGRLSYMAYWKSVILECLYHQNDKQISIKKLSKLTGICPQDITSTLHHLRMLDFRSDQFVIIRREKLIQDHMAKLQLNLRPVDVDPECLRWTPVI

Regarding `COc1ccccc1S(=O)(=O)NC(=O)c1ccc(Cn2cccn2)c(OC)n1` [Example C68, 5-((1H-pyrazol-1-yl)methyl)-6-methoxy-N-((2-methoxyphenyl)sulfonyl) picolinamide], the IC50 in assay [1] is at most 5 nM; in assay [2], at most 10 nM; in assay [3], 5 to 50 nM.

With `COc1ccc(C(C)(C)C)cc1S(=O)(=O)NC(=O)c1ccc(Cn2cccn2)c(Br)c1F` [Example C11, 4-((1H-pyrazol-1-yl)methyl)-3-bromo-N-((5-(tert-butyl)-2-methoxyphenyl)sulfonyl)-2-fluorobenzamide], the IC50 in assay [1] was at most 5 nM; in assay [2] it was at most 10 nM; in assay [3], at most 5 nM.

On to `COc1ccc(C2(C)CC3(COC3)C2)cc1S(=O)(=O)NC(=O)c1ccc(Cn2cccn2)c(OC)n1` [Example C74, 5-((1H-pyrazol-1-yl)methyl)-6-methoxy-N-((2-methoxy-5-(6-methyl-2-oxaspiro[3.3]heptan-6-yl)phenyl)sulfonyl) picolinamide], for which the results for the IC50 in assay [1], in assay [2] and in assay [3] were at most 5 nM, at most 10 nM and at most 5 nM, respectively.

With `COc1ccc(C2(OC)COC2)cc1S(=O)(=O)NC(=O)c1ccc(Cn2cccn2)c(OC)n1` [Example C67, 5-((1H-pyrazol-1-yl)methyl)-6-methoxy-N-((2-methoxy-5-(3-methoxyoxetan-3-yl)phenyl)sulfonyl) picolinamide], the IC50 in assay [1] is at most 5 nM; in assay [2], at most 10 nM; in assay [3], at most 5 nM.

With `COc1ccc2c(c1S(=O)(=O)NC(=O)c1ccc(Cn3cccn3)c(OC)n1)OCC21CCOCC1` [Example C71, 5-((1H-pyrazol-1-yl)methyl)-6-methoxy-N-((6-methoxy-2′,3′,5′,6′-tetrahydro-2H-spiro[benzofuran-3,4′-pyran]-7-yl)sulfonyl) picolinamide], the IC50 in assay [1] was at most 5 nM; in assay [2] it was at most 10 nM; in assay [3], at most 5 nM.

With `COc1ccc(N2CCC(OC)CC2)cc1S(=O)(=O)NC(=O)c1ccc(Cn2cccn2)c(C2CC2)c1` [Example C17, 4-((1H-pyrazol-1-yl)methyl)-3-cyclopropyl-N-((2-methoxy-5-(4-methoxypiperidin-1-yl)phenyl)sulfonyl)benzamide], the concentration for half-maximal inhibition (IC50) is at most 5 nM in assay [1], 10 to 100 nM in assay [2] and at most 5 nM in assay [3].

Turning to `COc1ccc2c(c1S(=O)(=O)NC(=O)c1ccc(Cn3cccn3)c(OC)n1)OCC2(C)C` [Example C43, 5-((1H-pyrazol-1-yl)methyl)-6-methoxy-N-((6-methoxy-3,3-dimethyl-2,3-dihydrobenzofuran-7-yl)sulfonyl)picolinamide], the half-inhibitory concentration (IC50) is at most 5 nM in assay [1], at most 10 nM in assay [2] and at most 5 nM in assay [3].

As for `COc1ccc(N2CC3CCC(C2)O3)cc1S(=O)(=O)NC(=O)c1ccc(Cn2cccn2)c(OC)n1` [Example C62, 5-((1H-pyrazol-1-yl)methyl)-N-((5-(8-oxa-3-azabicyclo[3.2.1]octan-3-yl)-2-methoxyphenyl)sulfonyl)-6-methoxy-picolinamide], the IC50 in assay [1] was at most 5 nM; in assay [2], at most 10 nM; in assay [3], at most 5 nM.

As to `COCc1cc(C(=O)NS(=O)(=O)c2cc(C(C)(C)C)ccc2OC)ccc1Cn1cccn1` [Example C12, 4-((1H-pyrazol-1-yl)methyl)-N-((5-(tert-butyl)-2-methoxyphenyl)sulfonyl)-3-(methoxymethyl)benzamide], the IC50 in assay [1] lay within 5 to 50 nM; in assay [2] it was 10 to 100 nM; in assay [3], 5 to 50 nM.

Take `CCc1nc(C(=O)NS(=O)(=O)c2c(OC)ccc3c2OCC3(C)C)ccc1Cn1cccn1` [Example C53, 5-((1H-pyrazol-1-yl)methyl)-6-ethyl-N-((6-methoxy-3,3-dimethyl-2,3-dihydrobenzofuran-7-yl)sulfonyl)picolinamide]: the IC50 is at most 5 nM in assay [1], at most 10 nM in assay [2] and at most 5 nM in assay [3].

Regarding `COc1ccc(C(C)(C)C)nc1S(=O)(=O)NC(=O)c1ccc(Cn2cccn2)c(OC)n1` [Example C41, 5-((1H-pyrazol-1-yl)methyl)-N-((6-(tert-butyl)-3-methoxypyridin-2-yl)sulfonyl)-6-methoxypicolinamide], the IC50 was at most 5 nM in assay [1], at most 10 nM in assay [2] and at most 5 nM in assay [3].

Turning to `COc1cc(C(=O)NS(=O)(=O)c2cc(C3(OC)CC3)ccc2OC)ccc1Cn1cccn1` [Example C28, 4-((1H-pyrazol-1-yl)methyl)-3-methoxy-N-((2-methoxy-5-(1-methoxy-cyclopropyl)phenyl)sulfonyl)benzamide], the results for the IC50 in assay [1], in assay [2] and in assay [3] were at most 5 nM, at most 10 nM and at most 5 nM, respectively.

For `C=Cc1cc(C(=O)NS(=O)(=O)c2nc(C(C)(C)C)ccc2OC)ccc1Cn1cccn1` [Example C16, 4-((1H-pyrazol-1-yl)methyl)-N-((6-(tert-butyl)-3-methoxypyridin-2-yl)sulfonyl)-3-vinylbenzamide], the IC50 in assay [1] is at most 5 nM; in assay [2], at most 10 nM; in assay [3] it was at most 5 nM.

With `COc1ccc(C2(C)COC2)cc1S(=O)(=O)NC(=O)c1ccc(Cn2cccn2)c(OC)n1` [Example C75, 5-((1H-pyrazol-1-yl)methyl)-6-methoxy-N-((2-methoxy-5-(3-methyloxetan-3-yl)phenyl)sulfonyl) picolinamide], the IC50 in assay [1] was at most 5 nM; in assay [2], at most 10 nM; in assay [3], at most 5 nM.

As to `COc1ccc(C2COCCN2C)cc1S(=O)(=O)NC(=O)c1ccc(Cn2cccn2)c(OC)n1` (stereo not drawn) [Example C73, 5-((1H-pyrazol-1-yl)methyl)-6-methoxy-N-((2-methoxy-5-(4-methylmorpholin-3-yl)phenyl)sulfonyl) picolinamide], the IC50 in assay [1] is at most 5 nM; in assay [2] it was at most 10 nM; in assay [3], at most 5 nM.

As usually defined, the IC50 is the concentration that inhibits the measured activity by half.

The values above are taken from patent US20250304535A1, “KAT6 Inhibitors” (BeiGene Switzerland GmbH, priority 2024, published 2025).
